A short description of this data set: storage study of relatively neutral pH beverage compositions containing glucosamine. Format: physicochemical. How it is done:
Special considerations in packaging, shipping, and or formulations may also be considered when delivering a targeted amount of glucosamine in the beverage compositions. As an example, shake-type beverages, such as the beverage composition provided in Table 3, are generally formulated to have a relatively neutral pH value.
Such a formulation was determined to deliver 1,500 mg of glucosamine based on results from a storage study. During the study, in which such beverages were stored for a period of 12 months at ambient (73 degrees Fahrenheit) temperature, it was determined that approximately 77% of glucosamine originally present had degraded during a 12 month storage period. Thus, information regarding the average shelf-life and/or delivery mechanisms for specific products may be utilized when formulating the beverage compositions. Such factors may include the temperature, time to consumption, packaging the compositions are stored within, among others.

`N[C@H]1C(O)O[C@H](CO)[C@@H](O)[C@@H]1O` (some centres unmarked) [glucosamine]: the “glucosamine originally present that had degraded during storage” value (relatively neutral pH beverage, around about 20 mg/ml glucosamine, stored 12 months at ambient (73 degrees Fahrenheit) temperature) is “approximately 77%”.

Take `Cl.N[C@H]1C(O)O[C@H](CO)[C@@H](O)[C@@H]1O` (some centres unmarked) [Glucosamine hydrochloride, glucosamine hydrochloride]: where the note is “formulated in beverages having neutral pHs (shake-type)”, the “degradation rate in beverage” value is reported as “degrades at a quickened rate”.

For the origin of these results see patent publication US20070292483A1, “REDUCING MUSCLE SORENESS WITH GLUCOSAMINE COMPOSITIONS” (Stokely-Van Camp, Inc., priority 2006, published 2007).
